Source: US8147891B2, “Use of an acaricidal powder” (SOLVAY (Societe Anonyme), priority 2002, dated 2012)
Read-outs that look alike come from different tables or passages of the source.

What was measured:
Tyrophagus putrescentiae = conditions: after 24 hours; 10 g powder, 50 mites
Procedure: (§1) 10 g of sodium bicarbonate powder having a particle size such that 100% of the particles have a diameter of less than 160μ, and at least 95% have a diameter of less than 100μ, were placed at the bottom of a Petri dish. 50 “Acarus siro” wheat mites were then placed on the powder.
The procedure was carried out as for Example 1, except that “Tyrophagus putrescentiae” cheese mites were used.

Rhizopertha dominica = conditions: 10 g powder, 50 insects
Description: In this example, a powder comprising 96% of sodium bicarbonate and 4% of amorphous precipitated fumed silica (Aerosil® 200 produced by Degussa) was used. The powder has a particle size such that 100% of the particles have a diameter of less than 160μ and at least 95% have a diameter of less than 100μ.
(§2) 10 g of powder were placed at the bottom of a Petri dish. 50 “lesser grain borer” insects (Rhizopertha dominica) were then placed on the powder, along with sufficient food to ensure survival for 15 days.
In Examples 4 and 5, the procedure was carried out as in Example 3, except that, in Example 4, a powder consisting essentially of sodium bicarbonate was used and, in Example 5, a powder consisting essentially of silica (silica gel) was used.

Acarus siro = conditions: after 48 hours; 10 g powder, 50 mites, mean of 3 samples
Description: as §1

Sitophilus granarius = tested on: Sitophilus granarius
Description: as §2
The effect of various silicas and of a mixture of diatomaceous earth supplemented with 10% of silica gel was also compared.

In the case of `O=C([O-])O.[Na+]` [Sodium bicarbonate, sodium bicarbonate], the “death of the acarids” value (Tyrophagus putrescentiae) was 100%, the “% mortality” value (Rhizopertha dominica; 48 h) was 2% and the “% mortality” value (Rhizopertha dominica; 72 h) was 8%. The “% mortality” value (Rhizopertha dominica; 4 days) was 15%, the “% mortality” value (Rhizopertha dominica; 7 days) was 21% and the “% mortality” value (Rhizopertha dominica; 10 days) was 43%. For the same compound, the “% mortality” value (Rhizopertha dominica; 15 days) was 91%, the “death of the acarids” value (Acarus siro) was 95% and the “% mortality” value (Sitophilus granarius; 24 h) was 0%. The “% mortality” value (Sitophilus granarius; 48 h) was 0%, the “% mortality” value (Sitophilus granarius; 72 h) was 1% and the “% mortality” value (Sitophilus granarius; 4 days) was 5%. For the same compound, the “% mortality” value (Sitophilus granarius; 7 days) was 9%, the “% mortality” value (Sitophilus granarius; 10 days) was 55% and the “% mortality” value (Sitophilus granarius; 15 days) was 100%.
